The source of these data is US12311058B2, “Single protein-encapsulated pharmaceutics for enhancing therapeutic effects” (priority 2018, dated 2025).

The test system of data set [1] is breast cancer cell line, MDA-MB231. Briefly: Xenograft model efficacy study, breast cancer MDA-MB231, in female athymic nude mice. The settings on record: iv; for % TGI, percent tumor growth inhibition compared to Group 1 / MTV (n) Day 20, median tumor volume: Doxorubicin 5, Composition 7 10, Mitoxantrone 3, Composition 6 6 mg/kg, Day 20. The protocol:
An efficacy study against breast cancer tumor was carried out on the materials from Example 8 (Composition 7) and Example 7 (Composition 6).

For data set [2] the following is noted: mouse model, documented; cited from earlier work.
For data set [3] the following is noted: congestive heart failure incidents; cited from earlier work.
A short description of data set [4]: Dialysis study on free form of doxorubicin, HSA/DOX mixture and Composition 7. Type of data set: physicochemical. The settings on record: PBS pH=7.4. The protocol: The dialysis tube was sealed and put into a glass beaker containing 100 mL of either PBS buffer (pH=7.4) or acetate buffer (pH=5.5) with a magnetic stirring bar. With constant stirring, aliquots (500 uL) at different time points were taken from the glass beaker and analyzed by UV spectrometer. […] It is most interesting to notice that HSA-encapsulated DOX is almost 3.5 times faster at pH=5.5 than at pH=7.4 for being dialyzed out from the dialysis tube.

For the compound `O=C1c2c(O)ccc(O)c2C(=O)c2c(NCCNCCO)ccc(NCCNCCO)c21` [Mitoxantrone, mitoxantrone], in data set [1] (qwk × 3, 20 day study), the “Deaths NTR (non-treatment-related death)” value came out at 0; the “Deaths TR (treatment-related death)” value came to 0; the “Mean BW Nadir, lowest group mean body weight as % change from Day 1” value was −0.2%; the “Regressions CR (complete regression)” value is listed as 0. Also, in data set [1] (qwk × 3, 20 day study), the “Regressions PR (partial regression)” value turned out to be 0. Moreover, in data set [1] (qwk × 3), the “% TGI, percent tumor growth inhibition compared to Group 1” value is on record as 27% and the “MTV (n) Day 20, median tumor volume” value is 498 (8) mm^2. In data set [1] (mouse, in vivo), the “Day of Mean BW Nadir” value was determined as 8 days. Moreover, in data set [2], the “Maximum tolerated dose (MTD)” value is reported as 3 mg/kg.

Turning to `COc1cccc2c1C(=O)c1c(O)c3c(c(O)c1C2=O)C[C@@](O)(C(=O)CO)C[C@@H]3O[C@H]1C[C@H](N)[C@H](O)[C@H](C)O1` [Doxorubicin, doxorubicin], the “Lifetime limit (cumulative dose)” value in data set [3] was under 450 mg/m^2. Also, in data set [1] (qwk × 3, 20 day study), the “Deaths NTR (non-treatment-related death)” value turned out to be 0, the “Deaths TR (treatment-related death)” value stood at 0, the “Regressions CR (complete regression)” value is reported as 0 and the “Regressions PR (partial regression)” value amounted to 0. Further, in data set [1] (qwk × 3), the “% TGI, percent tumor growth inhibition compared to Group 1” value was 34% and the “MTV (n) Day 20, median tumor volume” value was 453 (8) mm^2. For the same compound, the “Dialysis behaviour of free form” value in data set [4] is “precipitated in the dialysis bag due to the poor solubility at pH=7.4”. In data set [2], the “Maximum tolerated dose (MTD)” value is 5 mg/kg.
